Source: patent publication US20090202519A1, “Compositions and methods for treating gram positive bacterial infection in a mammalian subject” (The Scripps Research Institute, priority 2005, published 2009)
Converted amounts (≈) assume the structure as drawn.

Columns and labels:
S. aureus [1] = assay: Minimum inhibitory and bactericidal concentration on S. aureus in vitro; assay type: cell-based, Staphylococcus aureus; conditions: for bacteriostatic and bactericidal activity: in vitro
Experimental: (§1) Miller et al., Arch Dermatol 124:209-15, 1988; Wille and Kydonieus, Skin Pharmacol Appl Skin Physiol 16:176-87, 2003. To test the working hypothesis, a series of in vitro experiments were first performed in which the effect of each lipid was measured on the growth of S. pyogenes, S. aureus and E. coli.
(§2) Bacteria. S. aureus Xen8.1 (parental strain 8325-4), S. pyogenes Xen20 (derived from serotype M49, strain 591) and E. coli Xen14 (derived from EPEC WS2572) were obtained from Xenogen (Carnbury, N.J.)

S. pyogenes = assay: microbe, parasite or virus in culture; conditions: for bacteriostatic and bactericidal activity: S. pyogenes, in vitro; for MBC / MIC: Streptococcus pyogenes; for MBC: read-out: MBC (Minimum Bactericidal Concentration); for MIC: read-out: MIC (Minimum Inhibitory Concentration)
Experimental: as §1, §2

S. aureus [2] = assay: S. aureus skin infection in flake (flk/flk) mutant mice; assay type: in vivo, mouse; conditions: flake mutants; 100 μl of 100 μM every two days
Experimental: However, complete rescue of the phenotype was not achieved by this pharmacological approach.
A. Palmitoleate injection accelerates bacterial clearance in wild-type mice. Luminescence (expressed as a percentage of the initial inoculum) was measured in control (C57BL/6) mice inoculated with S. aureus (at day 0) and treated by vehicle (DMSO) or palmitoleate injections every two days (arrows). B. Picture of control (C57BL/6) mice 9 days after S. aureus infection treated by DMSO (top) or palmitoleate (bottom) injections. C. Histogram showing the size of the lesion measured at day 9 after the infection in control (B6) mice treated with DMSO or palmitoleate. ** indicates P value <0.01. D. Palmitoleate treatment in S. aureus-infected flake mice. The protocol is similar as in A, except that 100 μl injections of a 75 mM solution of palmitoleate were performed. E. Pictures of infected flake mice at day 12 after DMSO (top) or palmitoleate (bottom) treatment. F. Size of the lesion (determined at day 12) in infected flk mutants treated with DMSO or palmitoleate. * indicates P value <0.05.
Skin infection. […] Luminescence was monitored daily with a CCD camera (5 min exposure of the animals) and quantification was done with the IVIS program from Xenogen.

S. aureus [3] = assay: S. aureus skin infection in wild-type (C57BL/6) mice, luminescence and wound size; assay type: in vivo, mouse
Experimental: To investigate the physiological relevance of this antimicrobial activity, wild-type mice were inoculated with S. aureus and treated the infected animals by repeated (every two days) subcutaneous injections of palmitoleate (100 μl of a 100 μM solution in DMSO), or DMSO alone at the site of infection. The results of this experiment are illustrated in FIGS. 6A and B. For both groups of mice (n=6 animals), luminescence is expressed as a percentage of the initial inoculum, determined 24 hours after infection. […] As a consequence of improved S. aureus elimination, the diameter of the ulcerative wound (measured at day 9) in lipid-treated animals is one fourth that observed in controls (FIG. 6C).
A. Palmitoleate injection accelerates bacterial clearance in wild-type mice. Luminescence (expressed as a percentage of the initial inoculum) was measured in control (C57BL/6) mice inoculated with S. aureus (at day 0) and treated by vehicle (DMSO) or palmitoleate injections every two days (arrows). […] Histogram showing the size of the lesion measured at day 9 after the infection in control (B6) mice treated with DMSO or palmitoleate. ** indicates P value <0.01. […] F. Size of the lesion (determined at day 12) in infected flk mutants treated with DMSO or palmitoleate. * indicates P value <0.05. […]

SZ95 sebocytes = assay: SZ95 human sebocytes: IL-6/IL-8 ELISA and SCD1/FADS2 RT-PCR; assay type: cell-based; conditions: SZ95 cells
Text: To corroborate potential relevance of inducible Scd1 expression in human skin defense against Gram-positive pathogens, the effect of MALP-2 was investigated on the immortalized human sebocyte cell line SZ95. Zouboulis et al., J. Invest Dermatol. 113:1011-1020, 1999. […] These observations were extended by monitoring the expression of the fatty acid desaturase2 (FADS2) gene. FADS2 encodes a protein with enzymatic properties similar to those of SCD1 and was recently shown to be deficient in a patient affected by a severe skin condition manifested by cheilosis, a hyperkeratotic rash over the arms and legs and perineal dermatitis. Williard et al., J. Lipid Res. 42:501-508, 2001.
A. IL-6 production is induced in SZ95 cells after MALP-2 treatment (50 ng/ml). […] B. Quantification of IL-8 in the same conditions as in A. C. RT-PCR detection of SCD1 and FADS2 expression 4 and 18 hours after LPS and MALP-2 stimulation. GAPDH expression was used as control. D. Quantification of the SCD1 and FADS2 signals measured in two independent experiments (+/− s.e.m) after normalization with the GAPDH signal.
Cell culture. SZ95 sebocytes were maintained in HSG-Med (Sebomed, Berlin, Germany) supplemented with 10% heat inactivated FCS, 5 ng/ml human epidermal growth factor, 1 mM CaCl2, 10^−5 M palmitic acid, 50 μg/ml gentamicin for 2, 4, 8 and 18 hours with/without 50 ng/ml MALP-2 or 100 ng/ml LPS and the supernatants were collected for IL6 and IL8 evaluation by ELISA. RNA was isolated from the 4- and 18-hour samples by the RNeasy Midi kit (Qiagen, Hilden, Germany) and purified by the RNase-Free DNase set (Qiagen) for RT-PCR.
Semi-quantitative RT-PCR. Wild-type and Tlr2^−/− mutant mice were depilated and infected by subcutaneous injection of S. aureus or E. coli (5×10^5 […]). After 24 h, the skin of the infected area was dissected and total RNA was extracted by the Trizol (Gibco) method. […] Hoebe et al., J Endotoxin Res 9:250-5, 2003. hSCD1 and hFADS2 expression SZ95 sebocytes was measured by semi-quantitative RT-PCR using the following oligonucleotides: […]

[4] = system: Scd1 expression in peritoneal macrophages; assay: Scd1 expression by RT-PCR in stimulated peritoneal macrophages; assay type: cell-based; conditions: wild-type mouse peritoneal macrophages, within 18 hours after stimulation
Text: A. SignalScan analysis of the Scd1 promoter. NF-κB and ISRE (interferon-stimulated regulatory element) are shown. B. RT-PCR detection of Scd1 and β-actin transcripts in skin biopsies of non-infected controls (C57BL/6, lane 1) and Tlr2−/− (lane 4) animals or after infection by S. aureus (lanes 2 and 5) or E. coli (lane 3). PCR products after 30 and 40 cycles are shown. M, size standard. C. RT-PCR detection of Scd1 and β-actin transcripts in controls (0) and MALP-induced peritoneal macrophages isolated from wild-type mice after 2, 4, 8 and 18 h. D. Quantification of the Scd1/β-actin ratio.
Macrophages, which represent an ideal system in which to study TLR signaling, also express the Scd1 gene, as reported recently. Uryu et al., Biochem Biophys Res Commun 303:302-5, 2003. To determine whether isolated macrophages are capable of upregulating Scd1 and to determine the kinetics of the response, peritoneal macrophages isolated from wild-type mice were stimulated with, synthetic macrophage-activating lipopeptide (MALP-2, EMC microcollections GmbH, Germany), a known TLR2 agonist. Takeuchi et al., J Immunol 164:554-7, 2000. […]
Semi-quantitative RT-PCR. […] Hoebe et al., J Endotoxin Res 9:250-5, 2003. hSCD1 and hFADS2 expression SZ95 sebocytes was measured by semi-quantitative RT-PCR using the following oligonucleotides: […]

[5] = Staphylococcus aureus, average of 3 experiments

Compound	MIC (S. aureus [1]; [5])	bacteriostatic and bactericidal activity (S. aureus [1])	bacteriostatic and bactericidal activity (S. pyogenes)	MBC (S. pyogenes)	MIC (S. pyogenes)	bacterial growth (S. aureus [2])	MBC (S. aureus [1]; [5])	reduction of luminescence compared to vehicle-treated mice (S. aureus [3]; 9 days after S. aureus inoculation, s.c. 100 μl of 100 μM in DMSO every two days)	diameter of the ulcerative wound relative to controls (S. aureus [3]; measured at day 9, s.c. 100 μl of 100 μM every two days)	SCD1 transcription (SZ95 sebocytes; 4 hours after stimulation)	FADS2 expression (SZ95 sebocytes; 18 hours after stimulation)	IL-6 and IL-8 production (SZ95 sebocytes; MALP-2 50 ng/ml, LPS 100 ng/ml)	increase of Scd1 expression [4]
CCCCCCCC/C=C\CCCCCCCC(=O)O [Oleate, oleic acid]	> 75 µM	strong bacteriostatic and bactericidal activity	strong bacteriostatic and bactericidal activity	13.3 µM (≈ 3.76 µg/mL)	8.3 µM (≈ 2.34 µg/mL)								
CCCCCC/C=C\CCCCCCCC(=O)O [Palmitoleate, palmitoleic acid]	36.6 µM (≈ 9.31 µg/mL)	strong bacteriostatic and bactericidal activity	strong bacteriostatic and bactericidal activity	10 µM (≈ 2.54 µg/mL)	10 µM (≈ 2.54 µg/mL)	marked reduction of bacterial growth between days 1 and 4	50 µM (≈ 12.7 µg/mL)	90%	one fourth				
MALP-2										up-regulated	slightly but specifically induced	increased IL-6 and IL-8 production	4 fold
